Laboratory results as given in article PMC12166061, “Crystallographic fragment screening reveals ligand hotspots in TRIM21 PRY-SPRY domain” (Communications Chemistry, 2025).
pEC50, pKd: −log10 of the molar value. Like-named read-outs stand apart in the source and are kept apart here.

Assays:
[1] = molecular target: T1, full-length hTRIM21 with C-terminal NanoLuc fusion (Homo sapiens, UniProt P19474); conditions: for cell permeability: inferred from intact versus lysed NanoBRET; for tracer displacement: compound at 500 µM, NanoBRET
T1 sequence (P19474 whole entry, the tested form may be a part): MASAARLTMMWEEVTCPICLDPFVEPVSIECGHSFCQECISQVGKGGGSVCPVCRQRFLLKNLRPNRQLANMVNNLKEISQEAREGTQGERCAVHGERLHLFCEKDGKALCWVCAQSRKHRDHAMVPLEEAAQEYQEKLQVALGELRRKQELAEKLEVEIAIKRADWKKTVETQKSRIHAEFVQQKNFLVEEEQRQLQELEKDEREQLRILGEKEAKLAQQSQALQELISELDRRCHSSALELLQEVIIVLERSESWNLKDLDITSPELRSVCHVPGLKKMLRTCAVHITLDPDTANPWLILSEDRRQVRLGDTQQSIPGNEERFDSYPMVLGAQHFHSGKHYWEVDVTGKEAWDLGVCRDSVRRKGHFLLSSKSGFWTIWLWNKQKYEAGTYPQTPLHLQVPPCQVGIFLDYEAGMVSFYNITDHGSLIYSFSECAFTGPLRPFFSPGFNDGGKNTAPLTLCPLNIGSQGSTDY
Protocol: (§4) Full-length hTRIM21 with N- or C-terminal NanoLuc fusion was transfected into HEK293T cells (ATCC) using Fugene 4K (Promega, Cat. No. E5911) transfection reagent according to the manufacturer’s instructions. Following protein expression for 24 h, cells were split again in OptiMEM medium (phenol red free, Life Technologies) to a final amount of 2 × 10^5 cells per mL and 10 µL per well were distributed in a 384 well plate. Next, tracer AL244 (2) was added in concentrations from 3 µM to 6 nM. […] Then, cells were permeabilized through the addition of 25 nL Digitonin (0.05 µg µL^−1). Following another 5-min incubation, filtered luminescence was measured again. The data acquired in the tracer titration was converted into mBRET units (Fluorescence intensity at 610 nm / Luminescence intensity at 450 nm) × 1000 and graphed using Graph-Pad Prism v.9 software.
(§5) A 384-well plate with cells expressing hTRIM21-NLuc was prepared as described above. […] Then, cells were permeabilized with Digitonin and, following 5 min of incubation, filtered luminescence was measured. The data acquired in the competition experiments were converted to mBRET units, then normalized to the positive and negative control and graphed using Graph-Pad Prism v.9 software using a normalized three-parameter curve fit using the following equation: y = 100/[1 + 10(x − logIC50)].

[2] = molecular target: T1, full-length hTRIM21 with C-terminal NanoLuc fusion; experiment: cell-based; conditions: tracer AL244 (2)
Protocol: as §4, §5

[3] = molecular target: T2, His-SUMO-hTRIM21 PRY-SPRY (Homo sapiens, UniProt P19474); experiment: SPR fragment screening, human TRIM21 PRY-SPRY; type: binding
T2 construct: Human TRIM21 PRY-SPRY domain (residues V287-I465, UniProt-ID: P19474); made in house; host or cells: E. coli BL21(DE3)
T2 sequence (P19474 287-465): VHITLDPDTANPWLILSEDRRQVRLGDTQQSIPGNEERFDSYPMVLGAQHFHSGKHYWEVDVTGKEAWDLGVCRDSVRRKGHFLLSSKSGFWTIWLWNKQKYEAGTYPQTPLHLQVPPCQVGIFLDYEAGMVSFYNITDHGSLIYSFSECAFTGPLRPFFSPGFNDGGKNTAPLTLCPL
Protocol: (§1) His-mTRIM21 PRYSPRY and His-SUMO-hTRIM21 PRY-SPRY were immobilized onto flow channels (FC) FC2, FC3, and FC4 of a Series S sensor chip NTA (Cytiva). […] Proteins (10–20 µg mL^−1 in HBS-P+) were injected at 10 µL min^−1 to achieve response levels of 3500–4300 RU for mTRIM21 and 3600–4000 RU for hTRIM21. Flow channel 1 (FC1) was used as a reference surface. Surface deactivation and nickel stripping were achieved using 1 M ethanolamine and 350 mM ethylenediaminetetraacetic acid (EDTA), respectively.
(§2) Fragment screening was conducted by injecting 500 µM fragments diluted in running buffer (HBS-P+ with 1 mM TCEP and 2% (v/v) dimethyl sulfoxide (DMSO)) over all flow-channels for 30 s at 30 µL/min^−1. To account for surface drift, 50 µM of a control compound (Suramin) was injected every 15 fragment injections, and blank injections were performed every 5 fragments. Responses were analyzed by blank subtraction, reference subtraction (FC1), solvent correction, molecular weight adjustment, and drift correction using Biacore T200 Evaluation Software v3.2.1. The binding threshold for fragment hits was set based on the Suramin-binding response level.

[4] = molecular target: T3, human TRIM21 PRY-SPRY domain (Homo sapiens, UniProt P19474); experiment: Differential scanning fluorimetry (DSF, ΔTm), human TRIM21 PRY-SPRY domain; type: binding
T3 construct: Human TRIM21 PRY-SPRY domain (residues V287-I465, UniProt-ID: P19474); His6 (N, cleaved yes); SUMO (N, cleaved yes); made in house; host or cells: E. coli BL21(DE3)
T3 sequence (P19474 287-465): as above
Protocol: (§3) Briefly, recombinant murine and human TRIM21 PRY-SPRY domain at a concentration of 8 μM were mixed with 2 mM compound in their respective SEC buffer. SYPRO Orange (5000×, Invitrogen) was added as a fluorescence probe (1 µl per mL). Subsequently, temperature-dependent protein unfolding profiles were measured using the QuantStudio™ 5 realtime PCR machine (Thermo Fisher). Excitation and emission filters were set to 465 nm and 590 nm, respectively. The temperature was raised with a step rate of 3 °C per minute. Data points were analysed with the internal software (Thermal Shift SoftwareTM Version 1.4, Thermo Fisher) using the Boltzmann equation to determine the inflection point of the transition curve.

[5] = molecular target: T4, His-mTRIM21 PRYSPRY (Mus musculus, UniProt Q62191); experiment: SPR fragment screening and dose response, mouse TRIM21 PRY-SPRY; type: binding
T4 construct: mouse TRIM21 PRY-SPRY domain (residues V291-M470, UniProt-ID: Q62191); made in house; host or cells: E. coli BL21(DE3)
T4 sequence (Q62191 291-470): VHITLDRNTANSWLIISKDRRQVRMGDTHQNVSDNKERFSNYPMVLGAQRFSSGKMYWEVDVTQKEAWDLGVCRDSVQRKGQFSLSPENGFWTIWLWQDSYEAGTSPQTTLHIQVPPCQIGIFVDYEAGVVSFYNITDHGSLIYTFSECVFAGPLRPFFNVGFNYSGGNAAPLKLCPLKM
Protocol: as §1, §2
The data was solvent-corrected, reference-subtracted (FC1), and blank-subtracted using the T200 Evaluation Software v3.2.1. Sensorgrams were subsequently replotted using Graphpad v.9 software.

[6] = molecular target: T5, murine TRIM21 PRY-SPRY domain (Mus musculus, UniProt Q62191); experiment: Differential scanning fluorimetry (DSF, ΔTm), mouse TRIM21 PRY-SPRY domain; type: binding
T5 construct: mouse TRIM21 PRY-SPRY domain (residues V291-M470, UniProt-ID: Q62191); made in house; host or cells: E. coli BL21(DE3)
T5 sequence (Q62191 291-470): T4 sequence (Q62191 291-470)
Protocol: as §3

[7] = molecular target: TRIM21; conditions: mouse TRIM21; read-out: affinity; cited from earlier work
[8] = system: TRIM21 PRY-SPRY domain; experiment: DSF ΔTm of control suramin, species not stated; type: binding; conditions: at the screening concentration
Protocol: as §3

[9] = molecular target: TRIM21; conditions: human TRIM21; read-out: affinity; cited from earlier work
[10] = single dose 500 µM fragment, relative response, suramin reference threshold 100 relative RU

CSc1cc(F)ccc1-c1ccc(C(=O)NCC2CCCCC2)c(S(C)(=O)=O)c1 [AL236 (1)]
cell permeability [1]: high cell permeability
pEC50 ([2]; NanoBRET EC50 (intact), intact (live) HEK293T cells): 6.71
pEC50 ([2]; NanoBRET EC50 (lysed), permeabilized (lysed mode, digitonin) cells): 6.53

O=C(Nc1ccc(S(=O)(=O)Nc2ccccn2)cc1)c1ccccc1 [AL257 (3)]
tracer displacement [1]: displaced the tracer almost completely
cell permeability [1]: effective cell penetration
pEC50 ([2]; NanoBRET EC50 (intact), intact HEK293T cells): 3.84
pEC50 ([2]; NanoBRET EC50 (lysed), lysed cells (digitonin)): 3.61

CN(CCCCNS(=O)(=O)c1ccc(N)cc1)C(=O)c1cccs1 [AL266 (4)]
tracer displacement [1]: no activity

CC(=O)NC1CNc2ccccc2C1 (centres unmarked) [Fragment Z1492796719]
SPR hTRIM21 (Response) [3, 10]: 55.11
Tm-Shift hTRIM21 ([4]; 2 mM compound, 8 μM protein): -0.1 °C
SPR mTRIM21 (Response) [5, 10]: 54.86
Tm-shift mTRIM21 ([6]; 2 mM compound, 8 μM protein): -0.1 °C

CCc1csc(-c2c[nH]cn2)n1 [Fragment Z1530301542]
SPR hTRIM21 (Response) [3, 10]: 45.06
Tm-Shift hTRIM21 ([4]; 2 mM compound, 8 μM protein): 0.1 °C
SPR mTRIM21 (Response) [5, 10]: 39.06
Tm-shift mTRIM21 ([6]; 2 mM compound, 8 μM protein): -0.1 °C

Cc1c(Cl)cccc1NC(=O)[C@@H]1CCCO1 [Fragment Z1545312521]
SPR hTRIM21 (Response) [3, 10]: 24.5
Tm-Shift hTRIM21 ([4]; 2 mM compound, 8 μM protein): -0.7 °C
SPR mTRIM21 (Response) [5, 10]: 31.58
Tm-shift mTRIM21 ([6]; 2 mM compound, 8 μM protein): -0.9 °C

O=S1(=O)CCN(Cc2ccco2)CC1 [Fragment Z1568344634]
SPR hTRIM21 (Response) [3, 10]: 40.64
Tm-Shift hTRIM21 ([4]; 2 mM compound, 8 μM protein): 0 °C
SPR mTRIM21 (Response) [5, 10]: 60.76
Tm-shift mTRIM21 ([6]; 2 mM compound, 8 μM protein): -0.2 °C

Cc1nsc(N2CCCNCC2)n1 [Fragment Z1578665941]
SPR hTRIM21 (Response) [3, 10]: 59.22
Tm-Shift hTRIM21 ([4]; 2 mM compound, 8 μM protein): 0.1 °C
SPR mTRIM21 (Response) [5, 10]: 154
Tm-shift mTRIM21 ([6]; 2 mM compound, 8 μM protein): -0.1 °C

CC(=O)Nc1cc2c(cc1C)OCO2 [Fragment Z1635496816]
SPR hTRIM21 (Response) [3, 10]: 148.8
Tm-Shift hTRIM21 ([4]; 2 mM compound, 8 μM protein): 0.1 °C
SPR mTRIM21 (Response) [5, 10]: 140.9
Tm-shift mTRIM21 ([6]; 2 mM compound, 8 μM protein): 0 °C

CNC(=O)C1CNCCO1 (centres unmarked) [Fragment Z1636723439]
SPR hTRIM21 (Response) [3, 10]: 46.15
Tm-Shift hTRIM21 ([4]; 2 mM compound, 8 μM protein): 0.1 °C
SPR mTRIM21 (Response) [5, 10]: 142.5
Tm-shift mTRIM21 ([6]; 2 mM compound, 8 μM protein): 0.4 °C

OC1CN(C(c2ccccc2)c2ccccc2)C1 [Fragment Z1696844792]
SPR hTRIM21 (Response) [3, 10]: 122.6
Tm-Shift hTRIM21 ([4]; 2 mM compound, 8 μM protein): -0.8 °C
SPR mTRIM21 (Response) [5, 10]: 107.8
Tm-shift mTRIM21 ([6]; 2 mM compound, 8 μM protein): -0.5 °C

CS(=O)(=O)NCC1CCNCC1 [Fragment Z1741966151]
SPR hTRIM21 (Response) [3]: 18.48
Tm-Shift hTRIM21 [4]: 0.1 °C
SPR mTRIM21 (Response) [5]: 29.2
Tm-shift mTRIM21 [6]: 0.2 °C

CN(C)c1noc(C2CCNCC2)n1 [Fragment Z1742054999]
SPR hTRIM21 (Response) [3]: 41.66
Tm-Shift hTRIM21 [4]: -0.2 °C
SPR mTRIM21 (Response) [5]: 84.81
Tm-shift mTRIM21 [6]: 0 °C

COC1CN(Cc2cncs2)CCC1C (centres unmarked) [Fragment Z1787761777]
SPR hTRIM21 (Response) [3, 10]: -50.75
Tm-Shift hTRIM21 ([4]; 2 mM compound, 8 μM protein): -0.3 °C
SPR mTRIM21 (Response) [5, 10]: -42.9
Tm-shift mTRIM21 ([6]; 2 mM compound, 8 μM protein): -1.6 °C

Cc1cc(N2CCCCC2)nc(CO)n1 [Fragment Z1980894300]
SPR hTRIM21 (Response) [3, 10]: 66.59
Tm-Shift hTRIM21 ([4]; 2 mM compound, 8 μM protein): 0 °C
SPR mTRIM21 (Response) [5, 10]: 77.01
Tm-shift mTRIM21 ([6]; 2 mM compound, 8 μM protein): -0.2 °C

CN(C)C(=O)N1CCOCC12CCOC2 (centres unmarked) [Fragment Z1998104358]
SPR hTRIM21 (Response) [3]: 21.66
Tm-Shift hTRIM21 [4]: 0.1 °C
SPR mTRIM21 (Response) [5]: 24.94
Tm-shift mTRIM21 [6]: 0 °C

CC(O)c1cnn(C2CCCC2)c1 (centres unmarked) [Fragment Z2004563941]
SPR hTRIM21 (Response) [3, 10]: 39.09
Tm-Shift hTRIM21 ([4]; 2 mM compound, 8 μM protein): 0 °C
SPR mTRIM21 (Response) [5, 10]: 41.62
Tm-shift mTRIM21 ([6]; 2 mM compound, 8 μM protein): -0.2 °C

CC(=O)N1C[C@H]2CC[C@H]1c1ccccc12 [Fragment Z2017861827]
SPR hTRIM21 (Response) [3]: 47.45
Tm-Shift hTRIM21 [4]: -0.2 °C
SPR mTRIM21 (Response) [5]: 37.47
Tm-shift mTRIM21 [6]: -0.7 °C

CCNC1CCN(c2ccncc2)CC1 [Fragment Z2065616520]
Tm-Shift hTRIM21 ([4]; 2 mM compound, 8 μM protein): 0.6 °C
tracer displacement [1]: ~ 40%
Tm-shift mTRIM21 ([6]; 2 mM compound, 8 μM protein): 0.4 °C

O=C(COC(F)F)N1CC2CCCC2C1 (centres unmarked) [Fragment Z2072621991]
SPR hTRIM21 (Response) [3]: 28.49
Tm-Shift hTRIM21 [4]: -0.2 °C
SPR mTRIM21 (Response) [5]: 46.61
Tm-shift mTRIM21 [6]: 0 °C

O=C1CN(Cc2ccccc2)CC(=O)N1 [Fragment Z3220108246]
SPR hTRIM21 (Response) [3, 10]: 60.94
Tm-Shift hTRIM21 ([4]; 2 mM compound, 8 μM protein): -0.1 °C
SPR mTRIM21 (Response) [5, 10]: 58.83
Tm-shift mTRIM21 ([6]; 2 mM compound, 8 μM protein): -0.5 °C

Cc1ccc(C(=O)Nc2ccc(S(=O)(=O)O)c3cc(S(=O)(=O)O)cc(S(=O)(=O)O)c23)cc1NC(=O)c1cccc(NC(=O)Nc2cccc(C(=O)Nc3cc(C(=O)Nc4ccc(S(=O)(=O)O)c5cc(S(=O)(=O)O)cc(S(=O)(=O)O)c45)ccc3C)c2)c1 [suramin]
pKd [7]: ~5.00
ΔTm shift [8]: 2.3 °C
pKd [9]: ~5.00
SPR response of reference ([5]; suramin injected at 50 µM as reference, species not stated): 100 relative RU
